In PMC11882969 (Nature Communications, 2025):
“And” between values parts separate entries of the source, which are not always exact repeats. Equal values may be shown once. Read-outs that look alike come from different tables or passages of the source. Marks after values point to notes of the source that are not given here.

Columns and labels:
[1] = molecular target: T1, CB1 (rCB1) (Rattus norvegicus, UniProt P20272); test: Single-point radioligand displacement screen; type: binding
[2] = molecular target: T1, CB1 (rCB1); test: Radioligand competition binding, [3H]-CP-55,940, rat brain membranes
[3] = molecular target: T2, hCB1 (Homo sapiens, UniProt P21554); test: Lance Ultra cAMP accumulation assay, CHO cells; type: cell-based; design: expressed in transfected cells; conditions: replicates, sheet FigureS2a;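 further: human CB1R stably expressed in CHO cells, ligands co-incubated with forskolin at room temperature, read-out is lowering of forskolin-stimulated cAMP accumulation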
T2 sequence (P21554 whole entry): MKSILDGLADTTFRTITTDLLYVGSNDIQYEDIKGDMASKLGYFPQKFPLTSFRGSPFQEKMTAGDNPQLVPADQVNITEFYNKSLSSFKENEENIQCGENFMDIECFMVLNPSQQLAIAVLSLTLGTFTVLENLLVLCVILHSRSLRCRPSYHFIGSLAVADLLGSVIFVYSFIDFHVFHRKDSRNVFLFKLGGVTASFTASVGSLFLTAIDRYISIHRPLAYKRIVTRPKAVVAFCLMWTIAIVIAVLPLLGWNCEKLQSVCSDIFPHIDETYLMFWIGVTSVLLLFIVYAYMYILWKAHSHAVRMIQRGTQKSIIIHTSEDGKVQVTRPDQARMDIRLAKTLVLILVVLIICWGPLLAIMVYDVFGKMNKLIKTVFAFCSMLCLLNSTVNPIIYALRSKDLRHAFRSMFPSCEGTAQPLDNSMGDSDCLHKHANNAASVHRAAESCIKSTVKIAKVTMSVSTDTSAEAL
Procedure: The inhibition of forskolin-stimulated cAMP accumulation assays was carried out using PerkinElmer’s Lance Ultra cAMP kit following the manufacturer’s protocol. In brief, CHO cells stably expressing human CB1R (provided by the lab of Laura Bohn) were harvested by incubation with Versene (ThermoFisher Scientific, Waltham, MA) for 10 min, washed once with Hank’s Balanced Salt Solution, and resuspended in stimulation buffer at ~200 cells/μL density. The ligands at eight different concentrations (0.001-10,000 nM) in stimulation buffer (5 μL) containing forskolin (2 μM final concentration) were added to a 384-well plate followed by the cell suspension (5 μL; ~1000 cells/well). The plate was incubated for 30 min at room temperature. Eu-cAMP tracer (5 μL) and Ulight-anti-cAMP (5 μL) working solutions were then added to each well, and the plate was incubated at room temperature for an additional 60 min. Results were measured on a Perkin-Elmer EnVision plate reader. The EC50 values were determined by nonlinear regression analysis using Graphpad Prism 9 and are expressed as the mean of three experiments, each performed in triplicate.

[4] = molecular target: T2, hCB1; test: bioSensAll ebBRET signaling profiling, hCB1; type: cell-based; design: host or cells: HEK293SL cells, transient PEI transfection; conditions: for Barr2+GRK2 hCB1 response: Barr2+GRK2 biosensor; for Gi1 hCB1 / GoB hCB1: single replicate values, FigS6a; for EC50: read-out: EC50 [95% CI]; for Emax: normalized to CP-55,940

T1 sequence (P20272 whole entry): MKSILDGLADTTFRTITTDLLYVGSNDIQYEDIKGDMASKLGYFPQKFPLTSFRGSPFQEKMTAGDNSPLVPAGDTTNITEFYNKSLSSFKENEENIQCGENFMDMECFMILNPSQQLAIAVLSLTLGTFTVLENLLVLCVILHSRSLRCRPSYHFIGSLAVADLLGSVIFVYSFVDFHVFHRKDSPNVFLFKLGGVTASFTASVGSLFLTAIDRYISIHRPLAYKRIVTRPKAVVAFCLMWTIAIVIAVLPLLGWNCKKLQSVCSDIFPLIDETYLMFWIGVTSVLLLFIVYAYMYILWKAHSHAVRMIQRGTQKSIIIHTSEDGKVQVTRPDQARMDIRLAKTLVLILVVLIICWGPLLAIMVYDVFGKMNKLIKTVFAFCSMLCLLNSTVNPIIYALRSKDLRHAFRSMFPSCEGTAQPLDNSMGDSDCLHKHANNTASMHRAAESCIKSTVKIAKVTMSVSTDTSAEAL

## Cc1c(C(=O)OCC2CSc3ccccc3O2)cnn1Cc1ccccc1 (centres unmarked) [‘7800]
[1]; 10 µM, 1 µM or 300 nM by cell colour (not visible)
  % 1H-CP-55,940 displacement (mean) from single point screen: 80.92%
[1]; Figure 1c source data, replicate 1
  rep1_displacement: 81.9
[1]; Figure 1c source data, replicate 2
  rep2_displacement: 79.7
[1]; Figure 1c source data, replicate 3
  rep3_displacement: 81.1
[2]; log[drug] -3.643
  radioligand binding remaining, competition curve (Figure2e), replicate values: 10.4237 and 31.3638 and 29.0535
[2]; log[drug] -4.35655
  radioligand binding remaining, competition curve (Figure2e), replicate values: 33.4463 and 9.669 and 4.937
[2]; log[drug] -5.07
  radioligand binding remaining, competition curve (Figure2e), replicate values: 28.6441 and 35.1835 and 32.9974
[2]; log[drug] -5.783
  radioligand binding remaining, competition curve (Figure2e), replicate values: 65.4237 and 64.1301 and 55.9597
[2]; log[drug] -6.496
  radioligand binding remaining, competition curve (Figure2e), replicate values: 99.1808 and 92.7484 and 90.0088
[2]; log[drug] -7.21
  radioligand binding remaining, competition curve (Figure2e), replicate values: 109.096 and 99.3733 and 111.043
[2]; log[drug] -7.923
  radioligand binding remaining, competition curve (Figure2e), replicate values: 105.847 and 88.1826 and 105.215
[2]; log[drug] -8.636
  radioligand binding remaining, competition curve (Figure2e), replicate values: 93.4322 and 101.298 and 96.7572
[2]; rCB1
  pKi [95% CI]: 6.0 [5.78 – 6.21]
[3]; compound 0.01 nM
  cAMP assay signal, concentration-response point: 0.002674 and 0.00241 and 0.002252
[3]; compound 0.1 nM
  cAMP assay signal, concentration-response point: 0.00346* and 0.001953 and 0.002364
[3]; compound 1 nM
  cAMP assay signal, concentration-response point: 0.002571 and 0.002123 and 0.001894
[3]; compound 10 nM
  cAMP assay signal, concentration-response point: 0.002732 and 0.002198 and 0.002584
[3]; compound 100 nM
  cAMP assay signal, concentration-response point: 0.002212 and 0.002457 and 0.002193
[3]; compound 1000 nM
  cAMP assay signal, concentration-response point: 0.002381 (2×) and 0.002128
[3]; compound 10000 nM
  cAMP assay signal, concentration-response point: 0.002 and 0.002342 and 0.001808
[3]; compound 100000 nM
  cAMP assay signal, concentration-response point: 0.001289 and 0.001131 and 0.00137
[4]; Log [Compound] (M) -4.22186
  Barr2+GRK2 hCB1 response: 3.174
  Gi1 hCB1: 25.6433
  GoB hCB1: 18.8832
[4]; Log [Compound] (M) -4.63927
  Barr2+GRK2 hCB1 response: -20.118
  Gi1 hCB1: 18.3425
  GoB hCB1: 15.081
[4]; Log [Compound] (M) -5.05788
  Barr2+GRK2 hCB1 response: -51.0681
  Gi1 hCB1: 16.1253
  GoB hCB1: 13.1365
[4]; Log [Compound] (M) -5.47381
  Barr2+GRK2 hCB1 response: -52.3444
  Gi1 hCB1: 12.8471
  GoB hCB1: 14.5949
[4]; Log [Compound] (M) -5.89285
  Barr2+GRK2 hCB1 response: -39.9006
  Gi1 hCB1: 10.5191
  GoB hCB1: 11.0184
[4]; Log [Compound] (M) -6.31878
  Barr2+GRK2 hCB1 response: -51.3872
  Gi1 hCB1: 9.3
  GoB hCB1: 4.265
[4]; Log [Compound] (M) -6.72585
  Barr2+GRK2 hCB1 response: -54.5779
  Gi1 hCB1: 1.761
  GoB hCB1: -3.895
[4]; Log [Compound] (M) -7.14267
  Barr2+GRK2 hCB1 response: -56.4924
  Gi1 hCB1: -0.6935
  GoB hCB1: -5.024
[4]; Log [Compound] (M) -7.55284
  Barr2+GRK2 hCB1 response: -57.7686
  Gi1 hCB1: -2.087
  GoB hCB1: -3.843
[4]; Log [Compound] (M) -8
  Barr2+GRK2 hCB1 response: -46.9202
  Gi1 hCB1: -2.0396
  GoB hCB1: -4.659
[4]; Log [Compound] (M) -8.22186
  Barr2+GRK2 hCB1 response: -10.8649
  Gi1 hCB1: 3.424
  GoB hCB1: -0.09294
[4]; Log [Compound] (M) -8.39794
  Barr2+GRK2 hCB1 response: -42.7722
  Gi1 hCB1: -0.9469
  GoB hCB1: -3.478
[4]; Log [Compound] (M) -8.68787
  Barr2+GRK2 hCB1 response: -27.1376
  Gi1 hCB1: -0.4717
  GoB hCB1: -5.371
[4]; Log [Compound] (M) -9.15521
  Barr2+GRK2 hCB1 response: -45.9629
  Gi1 hCB1: -0.4876
  GoB hCB1: -5.492
[4]; Log [Compound] (M) -9.61989
  Barr2+GRK2 hCB1 response: -54.897
  Gi1 hCB1: 0.05088
  GoB hCB1: -8.027
[4]; Log [Compound] (M) -10.0969
  Barr2+GRK2 hCB1 response: -61.2784
  Gi1 hCB1: -0.4084
  GoB hCB1: -5.128
[4]; Log [Compound] (M) -10.5529
  Barr2+GRK2 hCB1 response: -43.4104
  Gi1 hCB1: -1.2
  GoB hCB1: -2.958
[4]; Log [Compound] (M) -11.0177
  Barr2+GRK2 hCB1 response: -60.6403
  Gi1 hCB1: -3.528
  GoB hCB1: -7.871
[4]; Log [Compound] (M) -11.4949
  Barr2+GRK2 hCB1 response: -45.3248
  Gi1 hCB1: -2.61
  GoB hCB1: -5.562
[4]; Log [Compound] (M) -11.9208
  Barr2+GRK2 hCB1 response: -40.5387
  Gi1 hCB1: -3.829
  GoB hCB1: -5.683
[4]; Log [Compound] (M) -12.3979
  Barr2+GRK2 hCB1 response: -30.0093
  Gi1 hCB1: -3.75
  GoB hCB1: -6.656
[4]; Log [Compound] (M) -12.8861
  Barr2+GRK2 hCB1 response: -43.4104
  Gi1 hCB1: -1.469
  GoB hCB1: -6.1521
[4]; Log [Compound] (M) -13.3979
  Barr2+GRK2 hCB1 response: -3.845
[4]; Log [Compound] (M) -13
  Gi1 hCB1: 0.2409
  GoB hCB1: -5.215
[4]; Log [Compound] (M) cell empty
  Gi1 hCB1: -0.4876
  GoB hCB1: -5.406
[4]; hCB1 Gi1
  pEC50 [95% CI]: 5.2 [6.0]
  EC50: 6.79 µM
[4]; hCB1 GoB
  pEC50 [95% CI]: 6.2 [5.9 – 6.4]
  EC50: 0.597 µM
[4]; read-out: Emax [95% CI], hCB1 Gi1
  Emax: 34%
[4]; read-out: Emax [95% CI], hCB1 GoB
  Emax: 21%
